Several values for one entry are separate records, joined by “and”; a condition that tells them apart may be missing. Equal entries are not always repeated.
Tests used:
[1] = system: New Zealand White rabbits; experiment: Intraocular pressure (IOP) in rabbits, topical dosing four times daily; assay type: in vivo; conditions: P.M. readings
Protocol: Seventy-five rabbits underwent two weeks of IOP training to condition them for IOP measurement. IOP was determined for both eyes of each animal using a Medtronic Solan, Model 30 classic pneumatonometer. Proparacaine hydrochloride 0.5% (1 drop) was delivered to each eye prior to IOP measurement. A two-point diurnal curve was established: IOP was recorded on Monday, Wednesday, and Friday of each week, at 8 a.m. and 12 p.m., with a ±1 hour range for each of these times. The time of the measurements was recorded.
On Days 1-31, animals received daily topical doses of the appropriate test article into the right eye. Animals were dosed four times per day, with doses administered 2 hours apart. Doses were administered using a calibrated 50-μL pipette. The eyelids were held close for 10 seconds immediately following dosing. The time of each dose administration was recorded.
Intraocular pressure (“IOP”) was determined for both eyes of each animal on Days 3, 5, 10, 12, 16, 18, 22, 24, 26, 30, and 32. IOP was evaluated with a Medtronic Solan, Model 30 classic pneumatonometer. Proparacaine hydrochloride 0.5% (1 drop) was delivered to each eye prior to IOP measurement. IOP was measured on Monday, Wednesday, and Friday of each week. A two-point diurnal curve was established: IOP was recorded at 8 a.m. and 12 p.m. on Day 3, and at 8 a.m. and 2 p.m. on later days, with a ±1 hour range for each of these times. The time of the measurements was recorded.
Descriptive statistics were prepared for IOP data of each treatment group (left and right eyes separately) at each measurement interval. The statistics included the number of observations (“N”), mean, standard deviation (“STD”), and standard error (“SEM”). Statistical analyses were conducted on IOP results using Statistical Analysis Systems (SAS Institute, Inc., Cary, N.C., V8.0). Parameters were evaluated using analysis of variance/GLM Procedure followed by Tukey's Standardized Range Test (Tukey, 1985) for post hoc comparisons of group means. The level of significance was set at a probability of p<0.05 for all statistical procedures. Group IOP means were compared at each interval, with left and right eyes compared separately.

[2] = system: rabbit eye (anterior chamber paracentesis); experiment: Clinical evaluation by slit lamp (clinical score), rabbit paracentesis model; assay type: in vivo; design: key to Clinical Score −180 min / Clinical Score −5 min / Clinical Score +115 min: 0=normal; 1=discrete dilatation of iris and conjunctival vessels; 2=moderate dilatation of iris and conjunctival vessels; 3=intense iridal hyperemia with flare in the anterior chamber; 4=intense iridal hyperemia with flare in the anterior chamber and presence of fibrinous exudates; conditions: for Clinical Score −5 min: 5 min before the first paracentesis; for Clinical Score −5 min / Clinical Score +115 min / Clinical Score −180 min: single eyes; for Clinical Score +115 min: 5 min before the second paracentesis
[3] = 0.1% topical, +115 min, N=8 eyes
[4] = 0.5% topical, +115 min, N=8 eyes

Cc1ccc2c(NCC(O)(CC(C)(C)c3cc(F)cc4c3OCC4)C(F)(F)F)cccc2n1 (stereo not drawn)
Intraocular Pressure (MEAN) ([1]; treated right eyes, Day 3, 1 mg/g (Group D)): 24.7 mmHg
Intraocular Pressure (MEAN) ([1]; treated right eyes, Day 3, 5 mg/g (Group C)): 23.6 mmHg
Intraocular Pressure (MEAN) ([1]; treated right eyes, Day 3, 10 mg/g (Group B)): 23.1 mmHg
Intraocular Pressure (MEAN) ([1]; treated right eyes, Day 5, 1 mg/g (Group D)): 25.5 mmHg
Intraocular Pressure (MEAN) ([1]; treated right eyes, Day 5, 5 mg/g (Group C)): 24.8 mmHg
Intraocular Pressure (MEAN) ([1]; treated right eyes, Day 5, 10 mg/g (Group B)): 25.7 mmHg
Intraocular Pressure (MEAN) ([1]; treated right eyes, Day 10, 1 mg/g (Group D)): 25.3 mmHg
Intraocular Pressure (MEAN) ([1]; treated right eyes, Day 10, 5 mg/g (Group C)): 25.6 mmHg
Intraocular Pressure (MEAN) ([1]; treated right eyes, Day 10, 10 mg/g (Group B)): 24.3 mmHg
Intraocular Pressure (MEAN) ([1]; treated right eyes, Day 12, 1 mg/g (Group D)): 24.0 mmHg
Intraocular Pressure (MEAN) ([1]; treated right eyes, Day 12, 5 mg/g (Group C)): 23.4 mmHg
Intraocular Pressure (MEAN) ([1]; treated right eyes, Day 12, 10 mg/g (Group B)): 23.8 mmHg
Intraocular Pressure (MEAN) ([1]; treated right eyes, Day 16, 1 mg/g (Group D)): 22.0 mmHg
Intraocular Pressure (MEAN) ([1]; treated right eyes, Day 16, 5 mg/g (Group C)): 21.4 mmHg
Intraocular Pressure (MEAN) ([1]; treated right eyes, Day 16, 10 mg/g (Group B)): 21.6 mmHg
Intraocular Pressure (MEAN) ([1]; treated right eyes, Day 18, 1 mg/g (Group D)): 23.1 mmHg
Intraocular Pressure (MEAN) ([1]; treated right eyes, Day 18, 5 mg/g (Group C)): 21.6 mmHg
Intraocular Pressure (MEAN) ([1]; treated right eyes, Day 18, 10 mg/g (Group B)): 22.5 mmHg
Intraocular Pressure (MEAN) ([1]; treated right eyes, Day 22, 1 mg/g (Group D)): 22.5 mmHg
Intraocular Pressure (MEAN) ([1]; treated right eyes, Day 22, 5 mg/g (Group C)): 22.8 mmHg
Intraocular Pressure (MEAN) ([1]; treated right eyes, Day 22, 10 mg/g (Group B)): 23.1 mmHg
Intraocular Pressure (MEAN) ([1]; treated right eyes, Day 24, 1 mg/g (Group D)): 23.6 mmHg
Intraocular Pressure (MEAN) ([1]; treated right eyes, Day 24, 5 mg/g (Group C)): 23.4 mmHg
Intraocular Pressure (MEAN) ([1]; treated right eyes, Day 24, 10 mg/g (Group B)): 22.8 mmHg
Intraocular Pressure (MEAN) ([1]; treated right eyes, Day 26, 1 mg/g (Group D)): 22.6 mmHg
Intraocular Pressure (MEAN) ([1]; treated right eyes, Day 26, 5 mg/g (Group C)): 22.2 mmHg
Intraocular Pressure (MEAN) ([1]; treated right eyes, Day 26, 10 mg/g (Group B)): 20.9 mmHg
Intraocular Pressure (MEAN) ([1]; treated right eyes, Day 30, 10 mg/g (Group B)): 22.4 mmHg
Intraocular Pressure (MEAN) ([1]; untreated left eyes, Day 3, 1 mg/g (Group D)): 25.0 mmHg
Intraocular Pressure (MEAN) ([1]; untreated left eyes, Day 3, 5 mg/g (Group C)): 23.9 mmHg
Intraocular Pressure (MEAN) ([1]; untreated left eyes, Day 3, 10 mg/g (Group B)): 23.3 mmHg
Intraocular Pressure (MEAN) ([1]; untreated left eyes, Day 5, 1 mg/g (Group D)): 24.7 mmHg
Intraocular Pressure (MEAN) ([1]; untreated left eyes, Day 5, 5 mg/g (Group C)): 24.8 mmHg
Intraocular Pressure (MEAN) ([1]; untreated left eyes, Day 5, 10 mg/g (Group B)): 25.2 mmHg
Intraocular Pressure (MEAN) ([1]; untreated left eyes, Day 10, 1 mg/g (Group D)): 24.9 mmHg
Intraocular Pressure (MEAN) ([1]; untreated left eyes, Day 10, 5 mg/g (Group C)): 24.6 mmHg
Intraocular Pressure (MEAN) ([1]; untreated left eyes, Day 10, 10 mg/g (Group B)): 23.5 mmHg
Intraocular Pressure (MEAN) ([1]; untreated left eyes, Day 12, 1 mg/g (Group D)): 23.7 mmHg
Intraocular Pressure (MEAN) ([1]; untreated left eyes, Day 12, 5 mg/g (Group C)): 23.3 mmHg
Intraocular Pressure (MEAN) ([1]; untreated left eyes, Day 12, 10 mg/g (Group B)): 24.1 mmHg
Intraocular Pressure (MEAN) ([1]; untreated left eyes, Day 16, 1 mg/g (Group D)): 21.9 mmHg
Intraocular Pressure (MEAN) ([1]; untreated left eyes, Day 16, 5 mg/g (Group C)): 20.4 mmHg
Intraocular Pressure (MEAN) ([1]; untreated left eyes, Day 16, 10 mg/g (Group B)): 21.4 mmHg
Intraocular Pressure (MEAN) ([1]; untreated left eyes, Day 18, 1 mg/g (Group D)): 22.7 mmHg
Intraocular Pressure (MEAN) ([1]; untreated left eyes, Day 18, 5 mg/g (Group C)): 21.9 mmHg
Intraocular Pressure (MEAN) ([1]; untreated left eyes, Day 18, 10 mg/g (Group B)): 22.1 mmHg
Intraocular Pressure (MEAN) ([1]; untreated left eyes, Day 22, 1 mg/g (Group D)): 22.1 mmHg
Intraocular Pressure (MEAN) ([1]; untreated left eyes, Day 22, 5 mg/g (Group C)): 22.1 mmHg
Intraocular Pressure (MEAN) ([1]; untreated left eyes, Day 22, 10 mg/g (Group B)): 22.6 mmHg
Intraocular Pressure (MEAN) ([1]; untreated left eyes, Day 24, 1 mg/g (Group D)): 22.9 mmHg
Intraocular Pressure (MEAN) ([1]; untreated left eyes, Day 24, 5 mg/g (Group C)): 22.2 mmHg
Intraocular Pressure (MEAN) ([1]; untreated left eyes, Day 24, 10 mg/g (Group B)): 22.8 mmHg
Intraocular Pressure (MEAN) ([1]; untreated left eyes, Day 26, 1 mg/g (Group D)): 22.1 mmHg
Intraocular Pressure (MEAN) ([1]; untreated left eyes, Day 26, 5 mg/g (Group C)): 22.3 mmHg
Intraocular Pressure (MEAN) ([1]; untreated left eyes, Day 26, 10 mg/g (Group B)): 21.4 mmHg
Intraocular Pressure (MEAN) ([1]; untreated left eyes, Day 30, 1 mg/g (Group D)): 21.3 mmHg
Intraocular Pressure (MEAN) ([1]; untreated left eyes, Day 30, 5 mg/g (Group C)): 20.9 mmHg
Intraocular Pressure (MEAN) ([1]; untreated left eyes, Day 30, 10 mg/g (Group B)): 21.7 mmHg
Intraocular Pressure (MEAN) ([1]; untreated left eyes, Day 32, 1 mg/g (Group D)): 21.9 mmHg
Intraocular Pressure (MEAN) ([1]; untreated left eyes, Day 32, 5 mg/g (Group C)): 21.5 mmHg
Intraocular Pressure (MEAN) ([1]; untreated left eyes, Day 32, 10 mg/g (Group B)): 22.6 mmHg
Intraocular Pressure (MEAN) ([1]; untreated left eyes, Pre-Study, 1 mg/g (Group D)): 24.2 mmHg
Intraocular Pressure (MEAN) ([1]; untreated left eyes, Pre-Study, 5 mg/g (Group C)): 24.4 mmHg
Intraocular Pressure (MEAN) ([1]; untreated left eyes, Pre-Study, 10 mg/g (Group B)): 23.9 mmHg
Clinical Score −5 min ([2]; 0.1% topical): 0
Clinical Score +115 min ([2]; 0.1% topical, listed as BOL): 2 and 3
Percentage of eyes with clinical score 2 [2, 3]: 75%
Percentage of eyes with clinical score 3 [2, 3]: 25%
Percentage of eyes with clinical score 0 ([2]; 0.1% topical, −5 min, N=8 eyes): 100%
Percentage of eyes with clinical score 0 ([2]; 0.1% topical, −180 min (basal), N=8 eyes): 100%
Clinical Score −180 min ([2]; 0.1% topical, −180 min (basal)): 0
Clinical Score −5 min ([2]; 0.5% topical): 0
Clinical Score +115 min ([2]; 0.5% topical, listed as BOL): 2 and 1
Percentage of eyes with clinical score 1 [2, 4]: 37.5%
Percentage of eyes with clinical score 2 [2, 4]: 62.5%
Percentage of eyes with clinical score 0 ([2]; 0.5% topical, −5 min, N=8 eyes): 100%
Percentage of eyes with clinical score 0 ([2]; 0.5% topical, −180 min (basal), N=8 eyes): 100%
Clinical Score −180 min ([2]; 0.5% topical, −180 min (basal)): 0
Clinical Score −5 min ([2]; 1% topical): 0
Clinical Score +115 min ([2]; 1% topical): 2
Percentage of eyes with clinical score 2 ([2]; 1% topical, +115 min, N=8 eyes): 100%
Percentage of eyes with clinical score 0 ([2]; 1% topical, −5 min, N=8 eyes): 100%
Percentage of eyes with clinical score 0 ([2]; 1% topical, −180 min (basal), N=8 eyes): 100%
Clinical Score −180 min ([2]; 1% topical, −180 min (basal)): 0

From patent US20080058373A1, “Compositions and Methods for Treating or Preventing Glaucoma or Progression Thereof” (priority 2006, published 2008)
